What was measured:
[1] = tested on: large (Lg) crabgrass; assay: Test A preemergence; format: in vivo, Digitaria sanguinalis; details: for Crabgrass, Large plant response rating: 500 g ai/ha
How it was run: (§1)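 Greenhouse pot test, loam/sand soil. Formulation: non-phytotoxic solvent mix plus surfactant. Pre: directed spray onto soil after sowing. Post: plants at 1–2 leaf, 2–10 cm. Rated visually vs untreated controls at ~10 d, 0 (no effect) to 100 (complete control).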

[2] = tested on: velvetleaf; assay: Test A preemergence; format: in vivo, Abutilon theophrasti; details: for Velvetleaf plant response rating (0 to 100 scale): 125 g ai/ha; for Velvetleaf plant response rating: 500 g ai/ha, 0 to 100 scale where 0 is no effect and 100 is complete control
How it was run: as §1

[3] = tested on: corn; assay: Test A preemergence; format: in vivo, Zea mays; details: for Corn plant response rating: 500 g ai/ha
How it was run: as §1

[4] = tested on: barnyardgrass; assay: Test A postemergence; format: in vivo, Echinochloa crus-galli; details: 0 to 100 scale where 0 is no effect and 100 is complete control; for Barnyardgrass plant response rating: 125 g ai/ha; for Plant response rating, Barnyardgrass: 500 g ai/ha
How it was run: as §1

[5] = tested on: giant foxtail; assay: Test A postemergence; format: in vivo, Setaria faberii; details: 0 to 100 scale where 0 is no effect and 100 is complete control; for Foxtail, Giant plant response rating: 125 g ai/ha; for Plant response rating, Foxtail, Giant: 500 g ai/ha
How it was run: as §1

[6] = tested on: morningglory; assay: Test A postemergence; format: in vivo, Ipomoea spp.; details: 0 to 100 scale where 0 is no effect and 100 is complete control; for Morningglory plant response rating: 125 g ai/ha; for Plant response rating, Morningglory: 500 g ai/ha
How it was run: as §1

[7] = tested on: corn; assay: Test A postemergence; format: in vivo, Zea mays; details: 0 to 100 scale where 0 is no effect and 100 is complete control; for Corn plant response rating: 125 g ai/ha; for Plant response rating, Corn: 500 g ai/ha
How it was run: as §1

[8] = tested on: Heteranthera limosa; assay: Test B flooded paddy test; format: in vivo; details: Flood, 250 g ai/ha; 0 to 100 scale where 0 is no effect and 100 is complete control
How it was run: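 Scores from 0 (no effect) to 100 (complete control) are visual comparisons with controls, taken 13 to 15 days after compound was applied into floodwater 3 cm deep around 2-leaf plants.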

[9] = tested on: corn; assay: Test C postemergence; format: in vivo, Zea mays; details: for Plant response rating (0 to 100), Corn: 16 g ai/ha, 0 is no effect, 100 is complete control; for Corn plant response rating: 31 g ai/ha; for Corn plant response rating / Plant response rating, Corn: scale 0 to 100 (0 no effect, 100 complete control)
How it was run: (§2)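 Injury was assessed visually against controls 13 to 15 days after application, with 0 meaning no effect and 100 full control; missing entries are shown as a dash. Preemergence sprays hit seeded loam–sand soil, postemergence sprays hit 1- to 4-leaf plants.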

[10] = tested on: giant foxtail; assay: Test C postemergence; format: in vivo, Setaria faberii; details: for Plant response rating (0 to 100), Foxtail, Giant: 16 g ai/ha, 0 is no effect, 100 is complete control; for Foxtail, Giant plant response rating: 31 g ai/ha; for Foxtail, Giant plant response rating / Plant response rating, Foxtail, Giant: scale 0 to 100 (0 no effect, 100 complete control)
How it was run: as §2

[11] = tested on: johnsongrass; assay: Test C postemergence; format: in vivo, Sorghum halepense; details: for Plant response rating (0 to 100), Johnsongrass: 16 g ai/ha, 0 is no effect, 100 is complete control; for Johnsongrass plant response rating: 31 g ai/ha; for Johnsongrass plant response rating / Plant response rating, Johnsongrass: scale 0 to 100 (0 no effect, 100 complete control)
How it was run: as §2

[12] = tested on: morningglory; assay: Test C postemergence; format: in vivo, Ipomoea coccinea; details: for Plant response rating (0 to 100), Morningglory: 16 g ai/ha, 0 is no effect, 100 is complete control; for Morningglory plant response rating: 31 g ai/ha; for Morningglory plant response rating / Plant response rating, Morningglory: scale 0 to 100 (0 no effect, 100 complete control)
How it was run: as §2

[13] = tested on: pigweed; assay: Test C postemergence; format: in vivo, Amaranthus retroflexus; details: for Plant response rating (0 to 100), Pigweed: 16 g ai/ha, 0 is no effect, 100 is complete control; for Pigweed plant response rating: 31 g ai/ha; for Pigweed plant response rating / Plant response rating, Pigweed: scale 0 to 100 (0 no effect, 100 complete control)
How it was run: as §2

[14] = tested on: oilseed rape; assay: Test C postemergence; format: in vivo, Brassica napus; details: for Plant response rating (0 to 100), Oilseed Rape: 16 g ai/ha, 0 is no effect, 100 is complete control; for Oilseed Rape plant response rating: 31 g ai/ha; for Oilseed Rape plant response rating / Plant response rating, Oilseed Rape: scale 0 to 100 (0 no effect, 100 complete control)
How it was run: as §2

[15] = tested on: waterhemp; assay: Test C postemergence; format: in vivo, Amaranthus rudis; details: for Plant response rating (0 to 100), Waterhemp: 16 g ai/ha, 0 is no effect, 100 is complete control; for Waterhemp plant response rating: 31 g ai/ha; for Waterhemp plant response rating / Plant response rating, Waterhemp: scale 0 to 100 (0 no effect, 100 complete control)
How it was run: as §2

[16] = tested on: velvetleaf; assay: Test C postemergence; format: in vivo, Abutilon theophrasti; details: for Velvetleaf plant response rating: 31 g ai/ha; for Velvetleaf plant response rating / Plant response rating, Velvetleaf: scale 0 to 100 (0 no effect, 100 complete control)
How it was run: as §2

[17] = 125 g ai/ha, 0 to 100 scale where 0 is no effect and 100 is complete control
[18] = 0 to 100 scale where 0 is no effect and 100 is complete control
[19] = postemergence, visual rating, 13 to 15 days
[20] = 125 g ai/ha, postemergence, visual rating
[21] = Postemergence, 62 g ai/ha, 13 to 15 days

Fc1cnc(Oc2cccc(C(F)F)c2-n2cc(C(F)(F)F)cn2)nc1 [Compound 164] was tested, and the “Plant response rating, Crabgrass, Large” value [1, 17] was 100, the “Crabgrass, Large plant response rating” value [1, 18] was 100 and the “Velvetleaf plant response rating (0 to 100 scale)” value [2] was 100. For the same compound, the “Velvetleaf plant response rating” value [2] was 100, the “Plant response rating, Corn” value [3, 17] was 10 and the “Corn plant response rating” value [3, 18] was 60. The “Barnyardgrass plant response rating” value [4] was 70, the “Plant response rating, Barnyardgrass” value [4] was 100 and the “Foxtail, Giant plant response rating” value [5] was 90. For the same compound, the “Plant response rating, Foxtail, Giant” value [5] was 100, the “Morningglory plant response rating” value [6] was 80 and the “Plant response rating, Morningglory” value [6] was 100. The “Corn plant response rating” value [7] was 40, the “Plant response rating, Corn” value [7] was 90 and the “Plant response rating, Ducksalad” value [8] was 100. The “Plant response rating (0 to 100), Corn” value ([9]; postemergence) was 0, the “Corn plant response rating” value [9, 19] was 5 and the “Plant response rating, Corn” value [9, 20] was 5. The “Plant response rating, Corn” value ([9]; Postemergence, 62 g ai/ha) was 5, the “Plant response rating (0 to 100), Foxtail, Giant” value ([10]; postemergence) was 0 and the “Foxtail, Giant plant response rating” value [10, 19] was 20. The “Plant response rating, Foxtail, Giant” value [10, 20] was 10, the “Plant response rating, Foxtail, Giant” value ([10]; Postemergence, 62 g ai/ha) was 10 and the “Plant response rating (0 to 100), Johnsongrass” value ([11]; postemergence) was 0. The “Johnsongrass plant response rating” value [11, 19] was 0, the “Plant response rating, Johnsongrass” value [11, 20] was 10 and the “Plant response rating, Johnsongrass” value ([11]; Postemergence, 62 g ai/ha) was 5. The “Plant response rating (0 to 100), Morningglory” value ([12]; postemergence) was 35, the “Morningglory plant response rating” value [12, 19] was 35 and the “Plant response rating, Morningglory” value [12, 20] was 80. For the same compound, the “Plant response rating, Morningglory” value ([12]; Postemergence, 62 g ai/ha) was 55, the “Plant response rating (0 to 100), Pigweed” value ([13]; postemergence) was 50 and the “Pigweed plant response rating” value [13, 19] was 75. The “Plant response rating, Pigweed” value [13, 20] was 80, the “Plant response rating, Pigweed” value ([13]; Postemergence, 62 g ai/ha) was 75 and the “Plant response rating (0 to 100), Oilseed Rape” value ([14]; postemergence) was 10. The “Oilseed Rape plant response rating” value [14, 19] was 10, the “Plant response rating, Oilseed Rape” value [14, 20] was 60 and the “Plant response rating, Oilseed Rape” value ([14]; Postemergence, 62 g ai/ha) was 55. For the same compound, the “Plant response rating (0 to 100), Waterhemp” value ([15]; postemergence) was 50, the “Waterhemp plant response rating” value [15, 19] was 45 and the “Plant response rating, Waterhemp” value [15, 20] was 75. The “Plant response rating, Waterhemp” value ([15]; Postemergence, 62 g ai/ha) was 65, the “Velvetleaf plant response rating” value [16, 19] was 15 and the “Plant response rating, Velvetleaf” value [16, 20] was 65. The “Plant response rating, Velvetleaf” value ([16]; Postemergence, 62 g ai/ha) was 40.

In the case of Clc1cnc(Oc2cccc(Br)c2-n2cc(Cl)cn2)nc1 [Compound 221], the “Crabgrass, Large plant response rating (0 to 100 scale)” value ([1]; 125 g ai/ha) is reported as 100, the “Crabgrass, Large plant response rating” value [1, 18] is reported as 100 and the “Velvetleaf plant response rating (0 to 100 scale)” value [2] is reported as 10. The “Velvetleaf plant response rating” value [2] was 70, the “Corn plant response rating (0 to 100 scale)” value ([3]; 125 g ai/ha) was 0 and the “Corn plant response rating” value [3, 18] was 0. The “Barnyardgrass plant response rating” value [4] was 50, the “Plant response rating, Barnyardgrass” value [4] was 100 and the “Foxtail, Giant plant response rating” value [5] was 50. The “Plant response rating, Foxtail, Giant” value [5] was 90, the “Morningglory plant response rating” value [6] was 90 and the “Plant response rating, Morningglory” value [6] was 100. The “Corn plant response rating” value [7] was 10, the “Plant response rating, Corn” value [7] was 50 and the “Plant response rating, Ducksalad” value [8] was 0. The “Plant response rating (0 to 100), Corn” value ([9]; postemergence) was 0, the “Corn plant response rating” value [9, 19] was 5 and the “Plant response rating, Corn” value [9, 20] was 10. For the same compound, the “Plant response rating, Corn” value [9, 21] was 10, the “Plant response rating (0 to 100), Foxtail, Giant” value ([10]; postemergence) was 0 and the “Foxtail, Giant plant response rating” value [10, 19] was 5. The “Plant response rating, Foxtail, Giant” value [10, 20] was 5, the “Plant response rating, Foxtail, Giant” value [10, 21] was 5 and the “Plant response rating (0 to 100), Johnsongrass” value ([11]; postemergence) was 5. For the same compound, the “Johnsongrass plant response rating” value [11, 19] was 5, the “Plant response rating, Johnsongrass” value [11, 20] was 20 and the “Plant response rating, Johnsongrass” value [11, 21] was 5. For the same compound, the “Plant response rating (0 to 100), Morningglory” value ([12]; postemergence) was 45, the “Morningglory plant response rating” value [12, 19] was 40 and the “Plant response rating, Morningglory” value [12, 20] was 55. The “Plant response rating, Morningglory” value [12, 21] was 50, the “Plant response rating (0 to 100), Pigweed” value ([13]; postemergence) was 60 and the “Pigweed plant response rating” value [13, 19] was 75. For the same compound, the “Plant response rating, Pigweed” value [13, 20] was 85, the “Plant response rating, Pigweed” value [13, 21] was 50 and the “Plant response rating (0 to 100), Oilseed Rape” value ([14]; postemergence) was 40. The “Oilseed Rape plant response rating” value [14, 19] was 50, the “Plant response rating, Oilseed Rape” value [14, 20] was 80 and the “Plant response rating, Oilseed Rape” value [14, 21] was 60. The “Plant response rating (0 to 100), Waterhemp” value ([15]; postemergence) was 65, the “Waterhemp plant response rating” value [15, 19] was 70 and the “Plant response rating, Waterhemp” value [15, 20] was 80. The “Plant response rating, Waterhemp” value [15, 21] was 80, the “Plant response rating (0 to 100), Velvetleaf” value ([16]; 16 g ai/ha, postemergence, 0 is no effect, 100 is complete control) was 35 and the “Velvetleaf plant response rating” value [16, 19] was 35. The “Plant response rating, Velvetleaf” value [16, 20] was 75 and the “Plant response rating, Velvetleaf” value [16, 21] was 45.

From patent US9695155B2, “Herbicidal substituted pyrimidinyloxy benzene compounds” (E. I. DU PONT DE NEMOURS AND COMPANY, priority 2013, dated 2017)
